Test results reported in ChEMBL document CHEMBL3045903, “Computational evaluation and experimental verification of antibacterial activity of some -lactams: advantages and limitations” (2013).

Legend:
Type in all cases: functional
Bacillus subtilis = experiment: Antibacterial activity against Bacillus subtilis by disk diffusion method
Klebsiella pneumoniae = experiment: Antibacterial activity against Klebsiella pneumoniae by disk diffusion method
Escherichia coli = experiment: Antibacterial activity against Escherichia coli by disk diffusion method
Staphylococcus = experiment: Antibacterial activity against Staphylococcus citrus by disc diffusion method

Compound	inhibition zone (IZ) (Bacillus subtilis) [mm]	inhibition zone (IZ) (Klebsiella pneumoniae) [mm]	inhibition zone (IZ) (Escherichia coli) [mm]	inhibition zone (IZ) (Staphylococcus) [mm]
CCOC(=O)C1C(c2ccccc2)CC2C(NC(=O)Cc3ccccc3)C(=O)N21 (stereo not drawn)	<6	<6	<6	<6
CCOC(=O)C(Cc1ccccc1)N1C(=O)C(NN2C(=O)c3ccccc3C2=O)C1CO (stereo not drawn)	<6	<6	<6	<6
CCOC(=O)C1C(c2ccccc2)CC2C(NC(=O)COc3ccccc3)C(=O)N21 (stereo not drawn)	<6	<6	<6	<6
CCOC(=O)C(Cc1ccccc1)N1C(=O)C(NC(=O)Cc2ccccc2)C1/C=C/c1ccccc1 (stereo not drawn)	>12	<6	<6	9
CCOC(=O)C(Cc1ccccc1)N1C(=O)C(NN2C(=O)c3ccccc3C2=O)C1C=O (stereo not drawn)	<6	<6	<6	<6
CCOC(=O)C1C(c2ccccc2)CC2C(NC(=O)/C=C/c3ccccc3)C(=O)N21 (stereo not drawn)	<6	<6	<6	<6
CCOC(=O)C(Cc1ccccc1)N1C(=O)C(NC(=O)/C=C/c2ccccc2)C1/C=C/c1ccccc1 (stereo not drawn)	<6	<6	<6	<6
CCOC(=O)C1C(c2ccccc2)CC2C(NC(=O)c3ccccc3)C(=O)N21 (stereo not drawn)	<6	<6	<6	<6
CCOC(=O)C1C(c2ccccc2)CC2C(NN3C(=O)c4ccccc4C3=O)C(=O)N21 (stereo not drawn)	<6	<6	<6	<6
CCOC(=O)C(Cc1ccccc1)N1C(=O)C(NN2C(=O)c3ccccc3C2=O)C1/C=C/c1ccccc1 (stereo not drawn)	>12	<6	<6	9
CCOC(=O)C(Cc1ccccc1)N1C(=O)C(NC(=O)c2ccccc2)C1/C=C/c1ccccc1 (stereo not drawn)	<6	<6	<6	<6
CCOC(=O)C(Cc1ccccc1)N1C(=O)C(NC(=O)COc2ccccc2)C1/C=C/c1ccccc1 (stereo not drawn)	>12	<6	<6	9
